What was measured:
B16-F10 cells [1] = experiment: Flow cytometry, surface MHC-I on CRISPR-edited cells with IFNγ; assay type: cell-based, murine; settings: for Surface MHC-I relative to Parental (Fig. 1c): Parental = 1.00
Protocol: Parental, CRISPR-edited or biologic-overexpressed tumour cells were seeded in a cell density of 60,000 (B16-F10), 150,000 (CT26), 100,000 (A375), or 200,000 (A549) per well in 12-well plate filled with 0.8 ml culture media + 10% FBS. After overnight incubation, the culture media were replaced with 1 ml fresh media supplemented with 10% FBS and the designated concentration of the recombinant mouse IFNγ (R&D Systems, #485-MI-100) or recombinant human IFNγ (R&D Systems, #285-IF-100). […]
(§1) Cells were dissociated from the wells with 0.25% trypsin (Gibco, 25200056). After rinsing with 0.5 ml PBS, each sample was stained with the LIVE/DEAD Fixable Aqua dead cell staining solution (Life Technologies, L34957) in 100 µl PBS (1:1000 dilution) for 15 min at 4 °C. After rinsing with 2 × 0.5 ml PBS, each sample was stained with the corresponding primary antibody-dye conjugates diluted in 100 µl Pharmingen stain buffer (BD Biosciences, #554657). After 1 h staining at 4 °C, the cells were rinsed with 2 × 2 ml Pharmingen stain buffer and fixed with 4.21% (w/w) formaldehyde (BD Biosciences, #554655). Cells were analyzed on LSRFortessa X-20 (BD Biosciences) with appropiate fluorescence compensation. The data were analyzed using FlowJo. Cells were gated based on FSC and SSC. Single cells were selected using FSC-A and FSC-H and viable cells were selected using LIVE/DEAD signal. Primary antibodies used were: H-2K^b/H-2D^b (FITC, Biolegend, #114606, 1:50 dilution), HLA-A,B,C (FITC, Biolegend, #311404, 1:100 dilution), mouse IFNGR1 (PE, Invitrogen, #12-1191-82, 1:50 dilution), human IFNGR1 (PE, Miltenyi, #130-125-851, 1:50 dilution), mouse IL1R1 (APC, Biolegend, #113509, 1:20 dilution), mouse IL6R (APC, Biolegend, #115812, 1:20 dilution), mouse IFNAR1 (APC, Biolegend, #127314, 1:20 dilution), and mouse GP130 (PE, Biolegend, #149404, 1:100 dilution).

B16-F10 cells [2] = experiment: Flow cytometry, surface IFNGR1 on CRISPR-edited cells; assay type: cell-based, murine; settings: for Surface IFNGR1 relative to Parental (Fig. 2c): Parental = 1.00
Protocol: Parental, CRISPR-edited or biologic-overexpressed tumour cells were seeded in a cell density of 60,000 (B16-F10), 150,000 (CT26), 100,000 (A375), or 200,000 (A549) per well in 12-well plate filled with 0.8 ml culture media + 10% FBS. After overnight incubation, the culture media were replaced with 1 ml fresh media supplemented with 10% FBS and the designated concentration of the recombinant mouse IFNγ (R&D Systems, #485-MI-100) or recombinant human IFNγ (R&D Systems, #285-IF-100). The cells were stimulated with the cytokine for 24 h before they were harvested by trypsinization for flow cytometry, western blot, or qPCR analysis (6 h treatment).
as §1

gStub1 #1 (guide GCATTGCTAAGAAGAAGCGC; chemistry not given here)
Surface MHC-I (Fig. 1b) (B16-F10 cells [1]; IFNg 0.01 ng/ml, replicate 1): 389
Surface MHC-I relative to Parental (Fig. 1c) (B16-F10 cells [1]; IFNg 0.01 ng/ml, replicate 1): 1.67
Surface MHC-I (Fig. 1b) (B16-F10 cells [1]; IFNg 0.01 ng/ml, replicate 2): 629
Surface MHC-I relative to Parental (Fig. 1c) (B16-F10 cells [1]; IFNg 0.01 ng/ml, replicate 2): 1.88
Surface MHC-I (Fig. 1b) (B16-F10 cells [1]; IFNg 0.01 ng/ml, replicate 3): 890
Surface MHC-I relative to Parental (Fig. 1c) (B16-F10 cells [1]; IFNg 0.01 ng/ml, replicate 3): 2.53
Surface MHC-I (Fig. 1b) (B16-F10 cells [1]; IFNg 0.01 ng/ml, replicate 4): 1203
Surface MHC-I relative to Parental (Fig. 1c) (B16-F10 cells [1]; IFNg 0.01 ng/ml, replicate 4): 4.12
Surface MHC-I (Fig. 1b) (B16-F10 cells [1]; IFNg 0.03 ng/ml, replicate 1): 1830
Surface MHC-I relative to Parental (Fig. 1c) (B16-F10 cells [1]; IFNg 0.03 ng/ml, replicate 1): 6.85
Surface MHC-I (Fig. 1b) (B16-F10 cells [1]; IFNg 0.03 ng/ml, replicate 2): 1489
Surface MHC-I relative to Parental (Fig. 1c) (B16-F10 cells [1]; IFNg 0.03 ng/ml, replicate 2): 3.84
Surface MHC-I (Fig. 1b) (B16-F10 cells [1]; IFNg 0.03 ng/ml, replicate 3): 2317
Surface MHC-I relative to Parental (Fig. 1c) (B16-F10 cells [1]; IFNg 0.03 ng/ml, replicate 3): 4.36
Surface MHC-I (Fig. 1b) (B16-F10 cells [1]; IFNg 0.03 ng/ml, replicate 4): 3040
Surface MHC-I relative to Parental (Fig. 1c) (B16-F10 cells [1]; IFNg 0.03 ng/ml, replicate 4): 6.59
Surface MHC-I (Fig. 1b) (B16-F10 cells [1]; IFNg 0.10 ng/ml, replicate 1): 1622
Surface MHC-I relative to Parental (Fig. 1c) (B16-F10 cells [1]; IFNg 0.10 ng/ml, replicate 1): 4.52
Surface MHC-I (Fig. 1b) (B16-F10 cells [1]; IFNg 0.10 ng/ml, replicate 2): 2825
Surface MHC-I relative to Parental (Fig. 1c) (B16-F10 cells [1]; IFNg 0.10 ng/ml, replicate 2): 4.07
Surface MHC-I (Fig. 1b) (B16-F10 cells [1]; IFNg 0.10 ng/ml, replicate 3): 4165
Surface MHC-I relative to Parental (Fig. 1c) (B16-F10 cells [1]; IFNg 0.10 ng/ml, replicate 3): 3.06
Surface MHC-I (Fig. 1b) (B16-F10 cells [1]; IFNg 0.10 ng/ml, replicate 4): 5343
Surface MHC-I relative to Parental (Fig. 1c) (B16-F10 cells [1]; IFNg 0.10 ng/ml, replicate 4): 3.53
Surface MHC-I (Fig. 1b) (B16-F10 cells [1]; IFNg 0.30 ng/ml, replicate 1): 3870
Surface MHC-I relative to Parental (Fig. 1c) (B16-F10 cells [1]; IFNg 0.30 ng/ml, replicate 1): 4.44
Surface MHC-I (Fig. 1b) (B16-F10 cells [1]; IFNg 0.30 ng/ml, replicate 2): 3946
Surface MHC-I relative to Parental (Fig. 1c) (B16-F10 cells [1]; IFNg 0.30 ng/ml, replicate 2): 3.12
Surface MHC-I (Fig. 1b) (B16-F10 cells [1]; IFNg 0.30 ng/ml, replicate 3): 5512
Surface MHC-I relative to Parental (Fig. 1c) (B16-F10 cells [1]; IFNg 0.30 ng/ml, replicate 3): 2.33
Surface MHC-I (Fig. 1b) (B16-F10 cells [1]; IFNg 0.30 ng/ml, replicate 4): 7772
Surface MHC-I relative to Parental (Fig. 1c) (B16-F10 cells [1]; IFNg 0.30 ng/ml, replicate 4): 2.83
Surface MHC-I (Fig. 1b) (B16-F10 cells [1]; IFNg 1.00 ng/ml, replicate 1): 6610
Surface MHC-I relative to Parental (Fig. 1c) (B16-F10 cells [1]; IFNg 1.00 ng/ml, replicate 1): 2.73
Surface MHC-I (Fig. 1b) (B16-F10 cells [1]; IFNg 1.00 ng/ml, replicate 2): 4959
Surface MHC-I relative to Parental (Fig. 1c) (B16-F10 cells [1]; IFNg 1.00 ng/ml, replicate 2): 2.67
Surface MHC-I (Fig. 1b) (B16-F10 cells [1]; IFNg 1.00 ng/ml, replicate 3): 6900
Surface MHC-I relative to Parental (Fig. 1c) (B16-F10 cells [1]; IFNg 1.00 ng/ml, replicate 3): 2.19
Surface MHC-I (Fig. 1b) (B16-F10 cells [1]; IFNg 1.00 ng/ml, replicate 4): 9888
Surface MHC-I relative to Parental (Fig. 1c) (B16-F10 cells [1]; IFNg 1.00 ng/ml, replicate 4): 2.56
Surface MHC-I (Fig. 1b) (B16-F10 cells [1]; IFNg Nil, replicate 1): 267
Surface MHC-I relative to Parental (Fig. 1c) (B16-F10 cells [1]; IFNg Nil, replicate 1): 0.97
Surface MHC-I (Fig. 1b) (B16-F10 cells [1]; IFNg Nil, replicate 2): 322
Surface MHC-I relative to Parental (Fig. 1c) (B16-F10 cells [1]; IFNg Nil, replicate 2): 1.05
Surface MHC-I (Fig. 1b) (B16-F10 cells [1]; IFNg Nil, replicate 3): 345
Surface MHC-I relative to Parental (Fig. 1c) (B16-F10 cells [1]; IFNg Nil, replicate 3): 1.07
Surface MHC-I (Fig. 1b) (B16-F10 cells [1]; IFNg Nil, replicate 4): 296
Surface MHC-I relative to Parental (Fig. 1c) (B16-F10 cells [1]; IFNg Nil, replicate 4): 1.15
Surface IFNGR1 (Fig. 2b) (B16-F10 cells [2]; IFNg 0.01 ng/ml, replicate 1): 4507
Surface IFNGR1 relative to Parental (Fig. 2c) (B16-F10 cells [2]; IFNg 0.01 ng/ml, replicate 1): 2.35
Surface IFNGR1 (Fig. 2b) (B16-F10 cells [2]; IFNg 0.01 ng/ml, replicate 2): 4382
Surface IFNGR1 relative to Parental (Fig. 2c) (B16-F10 cells [2]; IFNg 0.01 ng/ml, replicate 2): 2.34
Surface IFNGR1 (Fig. 2b) (B16-F10 cells [2]; IFNg 0.01 ng/ml, replicate 3): 3988
Surface IFNGR1 relative to Parental (Fig. 2c) (B16-F10 cells [2]; IFNg 0.01 ng/ml, replicate 3): 2.16
Surface IFNGR1 (Fig. 2b) (B16-F10 cells [2]; IFNg 0.03 ng/ml, replicate 1): 4026
Surface IFNGR1 relative to Parental (Fig. 2c) (B16-F10 cells [2]; IFNg 0.03 ng/ml, replicate 1): 1.83
Surface IFNGR1 (Fig. 2b) (B16-F10 cells [2]; IFNg 0.03 ng/ml, replicate 2): 3680
Surface IFNGR1 relative to Parental (Fig. 2c) (B16-F10 cells [2]; IFNg 0.03 ng/ml, replicate 2): 1.69
Surface IFNGR1 (Fig. 2b) (B16-F10 cells [2]; IFNg 0.03 ng/ml, replicate 3): 3566
Surface IFNGR1 relative to Parental (Fig. 2c) (B16-F10 cells [2]; IFNg 0.03 ng/ml, replicate 3): 2.17
Surface IFNGR1 (Fig. 2b) (B16-F10 cells [2]; IFNg 0.10 ng/ml, replicate 1): 4027
Surface IFNGR1 relative to Parental (Fig. 2c) (B16-F10 cells [2]; IFNg 0.10 ng/ml, replicate 1): 2.07
Surface IFNGR1 (Fig. 2b) (B16-F10 cells [2]; IFNg 0.10 ng/ml, replicate 2): 3862
Surface IFNGR1 relative to Parental (Fig. 2c) (B16-F10 cells [2]; IFNg 0.10 ng/ml, replicate 2): 2.28
Surface IFNGR1 (Fig. 2b) (B16-F10 cells [2]; IFNg 0.10 ng/ml, replicate 3): 3601
Surface IFNGR1 relative to Parental (Fig. 2c) (B16-F10 cells [2]; IFNg 0.10 ng/ml, replicate 3): 2.06
Surface IFNGR1 (Fig. 2b) (B16-F10 cells [2]; IFNg 0.30 ng/ml, replicate 1): 3595
Surface IFNGR1 relative to Parental (Fig. 2c) (B16-F10 cells [2]; IFNg 0.30 ng/ml, replicate 1): 1.70
Surface IFNGR1 (Fig. 2b) (B16-F10 cells [2]; IFNg 0.30 ng/ml, replicate 2): 3609
Surface IFNGR1 relative to Parental (Fig. 2c) (B16-F10 cells [2]; IFNg 0.30 ng/ml, replicate 2): 2.03
Surface IFNGR1 (Fig. 2b) (B16-F10 cells [2]; IFNg 0.30 ng/ml, replicate 3): 3263
Surface IFNGR1 relative to Parental (Fig. 2c) (B16-F10 cells [2]; IFNg 0.30 ng/ml, replicate 3): 1.89
Surface IFNGR1 (Fig. 2b) (B16-F10 cells [2]; IFNg 1.00 ng/ml, replicate 1): 3107
Surface IFNGR1 relative to Parental (Fig. 2c) (B16-F10 cells [2]; IFNg 1.00 ng/ml, replicate 1): 1.68
Surface IFNGR1 (Fig. 2b) (B16-F10 cells [2]; IFNg 1.00 ng/ml, replicate 2): 3061
Surface IFNGR1 relative to Parental (Fig. 2c) (B16-F10 cells [2]; IFNg 1.00 ng/ml, replicate 2): 1.74
Surface IFNGR1 (Fig. 2b) (B16-F10 cells [2]; IFNg 1.00 ng/ml, replicate 3): 2676
Surface IFNGR1 relative to Parental (Fig. 2c) (B16-F10 cells [2]; IFNg 1.00 ng/ml, replicate 3): 1.66
Surface IFNGR1 (Fig. 2b) (B16-F10 cells [2]; IFNg Nil, replicate 1): 4564
Surface IFNGR1 relative to Parental (Fig. 2c) (B16-F10 cells [2]; IFNg Nil, replicate 1): 2.27
Surface IFNGR1 (Fig. 2b) (B16-F10 cells [2]; IFNg Nil, replicate 2): 4378
Surface IFNGR1 relative to Parental (Fig. 2c) (B16-F10 cells [2]; IFNg Nil, replicate 2): 2.36
Surface IFNGR1 (Fig. 2b) (B16-F10 cells [2]; IFNg Nil, replicate 3): 4200
Surface IFNGR1 relative to Parental (Fig. 2c) (B16-F10 cells [2]; IFNg Nil, replicate 3): 2.25

Reference: paper PMC9388626, “STUB1 is an intracellular checkpoint for interferon gamma sensing” (Scientific Reports, 2022)
